Assay results: US6333176A (Degussa Aktiengesellschaft, priority 1994, dated 2001)
Peptide text beside a SMILES is read from it.

What follows are compounds tested against T1, peptide amidase from Xanthomonas maltophilia (Stenotrophomonas maltophilia, UniProt Q8RJN5) (assay: Substrate spectrum of peptide amidase, enzymatic determination of the released ammonia). Conditions: substrate 10 mM, 18 mU peptide amidase per ml, 50 mM tris/HCl pH 7.5, 30° C., 3 hours.
T1 construct: wild type, not recombinant
T1 sequence (Q8RJN5 34-540): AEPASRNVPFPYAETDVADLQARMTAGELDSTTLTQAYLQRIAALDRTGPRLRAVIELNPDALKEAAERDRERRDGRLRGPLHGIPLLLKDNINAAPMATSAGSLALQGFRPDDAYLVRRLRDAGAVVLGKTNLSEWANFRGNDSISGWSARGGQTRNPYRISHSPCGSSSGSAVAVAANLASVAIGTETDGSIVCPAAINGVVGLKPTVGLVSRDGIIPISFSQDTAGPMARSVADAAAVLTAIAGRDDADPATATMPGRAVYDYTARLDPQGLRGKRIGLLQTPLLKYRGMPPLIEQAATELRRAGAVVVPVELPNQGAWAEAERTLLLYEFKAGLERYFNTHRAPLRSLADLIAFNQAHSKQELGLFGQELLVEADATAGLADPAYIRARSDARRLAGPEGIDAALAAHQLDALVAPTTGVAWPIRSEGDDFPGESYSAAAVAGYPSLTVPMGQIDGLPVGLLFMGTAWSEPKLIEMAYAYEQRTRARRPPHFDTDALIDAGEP
Assay type: biochemical
Method: (§1) 18 mU of peptide amidase (purification state after the gel filtration) per ml test batch was used for the substrate spectrum of peptide amidase from Xanthomonas maltophilia. The concentration of the tested substrates was 10 mM in the reaction batch. Unless otherwise indicated, L-amino acid derivatives were used. The incubation took place in 50 mM tris/HCl, pH 7.5 at 30° C. for 3 hours. The reaction was stopped by heating for 5 minutes at 95° C. The determination of activity took place using enzymatic determination of the released ammonia (Bergmeyer, U. (1985): Methods of Enzymatic Analysis, p. 459, VCH Verlagsgesellschaft, Weinheim).
CC(=O)NC(CC(C)(C)C)C(N)=O (racemic) [Ac-D,L-neopentylglycine amide, Nα -acetyl-DL-neopentylglycine Amide] was tested, and the “Relative conversion (conversion of N-acetyl amino acid amides, Table 4b)” value was 131%. In the case of CC(C)[C@H](N)C(=O)NCC(N)=O [Val-Gly-NH2] (H-Val-Gly-NH2), the “Relative conversion (conversion of dipeptide amides, Table 4a)” value is reported as 22%. CSCCC(NC(N)=O)C(N)=O (racemic) [N-Carbamoyl-D,L-Met-NH2] was tested, and the “Relative conversion (influence of protective group and adjacent amino acid, Table 4c)” value was 77%. With CC(=O)N[C@@H](CCCNC(=N)N)C(N)=O [Ac-Arg-NH2] the “Relative conversion (conversion of N-acetyl amino acid amides, Table 4b)” value was 110%. With CCOC(=O)NC(CCSC)C(N)=O (racemic) [N-Ethoxy-D,L-Met-NH2, Nα -ethoxycarbonyl-DL-methionine amide] the “Relative conversion (influence of protective group and adjacent amino acid, Table 4c)” value was 124%. In the case of NC(=O)[C@H](Cc1ccccc1)NC(=O)[C@@H]1CCCN1 [Pro-Phe-NH2] (H-Pro-Phe-NH2), the “Relative conversion (conversion of dipeptide amides, Table 4a)” value is reported as 158%. For CC(=O)N[C@@H](CCC(=O)O)C(N)=O [Ac-Glu-NH2], the “Relative conversion (conversion of N-acetyl amino acid amides, Table 4b)” value was 162%. In the case of CC(=O)N[C@@H](Cc1c[nH]c2ccccc12)C(N)=O [Ac-Trp-NH2], the “Relative conversion (conversion of N-acetyl amino acid amides, Table 4b)” value is reported as 157%. CC(=O)N1CCC[C@H]1C(N)=O [Ac-Pro-NH2] was tested, and the “Relative conversion (conversion of N-acetyl amino acid amides, Table 4b)” value was 0%. With CC(=O)N[C@@H](C)C(N)=O [Ac-Ala-NH2] the “Relative conversion (conversion of N-acetyl amino acid amides, Table 4b)” value was 182%. With CC(=O)N[C@@H](Cc1ccccc1)C(N)=O [Ac-Phe-NH2] the “Relative conversion (conversion of N-acetyl amino acid amides, Table 4b)” value was 134%. In the case of NCC(=O)N[C@@H](CC(N)=O)C(=O)O [Gly-Asn-OH] (H-Gly-Asn-OH), the “Relative conversion (conversion of dipeptide amides, Table 4a)” value is reported as 0%. With CC(C)C[C@H](N)C(=O)NCC(N)=O [Leu-Gly-NH2] (H-Leu-Gly-NH2) the “Relative conversion (conversion of dipeptide amides, Table 4a)” value was 54%. For C[C@H](N)C(=O)N[C@@H](CCC(N)=O)C(=O)O [Ala-Gln-OH] (H-Ala-Gln-OH), the “Relative conversion (conversion of dipeptide amides, Table 4a)” value was 0%. For NC(=O)[C@H](Cc1ccccc1)NC(=O)[C@@H](N)Cc1ccc(O)cc1 [Tyr-Phe-NH2] (H-Tyr-Phe-NH2), the “Relative conversion (conversion of dipeptide amides, Table 4a)” value was 190%. In the case of CC(C)C[C@H](N)C(=O)N[C@@H](C)C(N)=O [Leu-Ala-NH2] (H-Leu-Ala-NH2), the “Relative conversion (conversion of dipeptide amides, Table 4a)” value is reported as 217% and the “Relative conversion (influence of protective group and adjacent amino acid, Table 4c)” value is reported as 217%. For COC(=O)NC(CCSC)C(N)=O (racemic) [N-Methoxy-D,L-Met-NH2, Nα -methoxycarbonyl-DL-methionine Amide], the “Relative conversion (influence of protective group and adjacent amino acid, Table 4c)” value was 109%. C[C@H](N)C(=O)NCC(N)=O [Ala-Gly-NH2] (H-Ala-Gly-NH2) was tested, and the “Relative conversion (conversion of dipeptide amides, Table 4a)” value was 39%. In the case of C[C@H](N)C(=O)N[C@@H](C)C(N)=O [Ala-Ala-NH2] (H-Ala-Ala-NH2), the “Relative conversion (conversion of dipeptide amides, Table 4a)” value is reported as 211% and the “Relative conversion (influence of protective group and adjacent amino acid, Table 4c)” value is reported as 211%. In the case of NCC(=O)N[C@@H](Cc1ccc(O)cc1)C(N)=O [Gly-Tyr-NH2] (H-Gly-Tyr-NH2), the “Relative conversion (conversion of dipeptide amides, Table 4a)” value is reported as 174% and the “Relative conversion (influence of protective group and adjacent amino acid, Table 4c)” value is reported as 174%. CC(=O)N[C@H](C(N)=O)C(C)C [Ac-Val-NH2] was tested, and the “Relative conversion (conversion of N-acetyl amino acid amides, Table 4b)” value was 1%. With “N-acetyl-naphthylalanine amide [Ac-Nal-NH2]” the “Relative conversion (conversion of N-acetyl amino acid amides, Table 4b)” value was 84%. In the case of NC(=O)[C@H](Cc1ccc(O)cc1)NC(=O)c1ccccc1 [Bz-Tyr-NH2], the “Relative conversion (influence of protective group and adjacent amino acid, Table 4c)” value is reported as 173%. In the case of CC(=O)N[C@@H](Cc1c[nH]cn1)C(N)=O [Ac-His-NH2], the “Relative conversion (conversion of N-acetyl amino acid amides, Table 4b)” value is reported as 177%. With C[C@H](N)C(=O)N[C@@H](Cc1ccccc1)C(N)=O [Ala-Phe-NH2] the “Relative conversion (conversion of dipeptide amides, Table 4a)” value was 218%. In the case of NCC(=O)N[C@@H](Cc1ccccc1)C(N)=O [Gly-Phe-NH2] (H-Gly-Phe-NH2), the “Relative conversion (conversion of dipeptide amides, Table 4a)” value is reported as 214%. For CSCC[C@H](NC(=O)[C@@H](N)CCCNC(=N)N)C(N)=O [Arg-Met-NH2] (H-Arg-Met-NH2), the “Relative conversion (influence of protective group and adjacent amino acid, Table 4c)” value was 125%. For CC(=O)N[C@H](C(N)=O)[C@@H](C)O [Ac-Thr-NH2], the “Relative conversion (conversion of N-acetyl amino acid amides, Table 4b)” value was 21%. For C[C@H](N)C(=O)N[C@@H](CC(N)=O)C(=O)O [Ala-Asn-OH] (H-Ala-Asn-OH), the “Relative conversion (conversion of dipeptide amides, Table 4a)” value was 0%. NCC(=O)NCC(N)=O [Gly-Gly-NH2] was tested, and the “Relative conversion (conversion of dipeptide amides, Table 4a)” value was 8%. CC(=O)N[C@H](C(N)=O)c1ccccc1 [Ac-Phg-NH2, N-acetylphenylglycine amide] was tested, and the “Relative conversion (conversion of N-acetyl amino acid amides, Table 4b)” value was 28%. For NC(=O)CNC(=O)[C@@H]1CCCN1 [Pro-Gly-NH2] (H-Pro-Gly-NH2), the “Relative conversion (conversion of dipeptide amides, Table 4a)” value was 66%. CC(C)[C@H](N)C(=O)N[C@@H](Cc1ccccc1)C(N)=O [Val-Phe-NH2] (H-Val-Phe-NH2) was tested, and the “Relative conversion (conversion of dipeptide amides, Table 4a)” value was 140%. For NC(=O)[C@H](Cc1ccccc1)NC(=O)[C@@H](N)Cc1cnc[nH]1 [His-Phe-NH2] (H-His-Phe-NH2), the “Relative conversion (conversion of dipeptide amides, Table 4a)” value was 137%. For CC(=O)N[C@@H](Cc1ccc(O)cc1)C(N)=O [Ac-Tyr-NH2], the “Relative conversion (conversion of N-acetyl amino acid amides, Table 4b)” value was 123% and the “Relative conversion (influence of protective group and adjacent amino acid, Table 4c)” value was 123%. NC(=O)CNC(=O)[C@@H](N)Cc1ccccc1 [Phe-Gly-NH2] (H-Phe-Gly-NH2) was tested, and the “Relative conversion (conversion of dipeptide amides, Table 4a)” value was 51%. For C[C@H](NC(=O)OCc1ccccc1)C(N)=O [Z-Ala-NH2], the “Relative conversion (influence of protective group and adjacent amino acid, Table 4c)” value was 62%. With CC(=O)N[C@@H](CCCCN)C(N)=O [Ac-Lys-NH2] the “Relative conversion (conversion of N-acetyl amino acid amides, Table 4b)” value was 175%. For CC(=O)N[C@@H](CS)C(N)=O, the “Relative conversion (conversion of N-acetyl amino acid amides, Table 4b)” value was 82%. With NC(=O)[C@H](Cc1ccccc1)NC(=O)[C@@H](N)CO [Ser-Phe-NH2] the “Relative conversion (conversion of dipeptide amides, Table 4a)” value was 217%. With C[C@@H](NC(=O)OCc1ccccc1)C(N)=O [Z-D-Ala-NH2] the “Relative conversion (influence of protective group and adjacent amino acid, Table 4c)” value was 0%. For NC(=O)[C@@H]1CCCN1C(=O)[C@@H](N)Cc1ccc(O)cc1 [Tyr-Pro-NH2] (H-Tyr-Pro-NH2), the “Relative conversion (conversion of dipeptide amides, Table 4a)” value was 0%. C[C@H](NC(=O)[C@@H](N)Cc1ccccc1)C(N)=O [Phe-Ala-NH2] was tested, and the “Relative conversion (conversion of dipeptide amides, Table 4a)” value was 203% and the “Relative conversion (influence of protective group and adjacent amino acid, Table 4c)” value was 203%. For NC(=O)CNC(=O)[C@@H](N)Cc1ccc(O)cc1 [Tyr-Gly-NH2], the “Relative conversion (conversion of dipeptide amides, Table 4a)” value was 54%. In the case of CC[C@H](C)[C@H](NC(C)=O)C(N)=O [Ac-Ile-NH2], the “Relative conversion (conversion of N-acetyl amino acid amides, Table 4b)” value is reported as 6%. For CC(C)C[C@H](N)C(=O)N[C@@H](Cc1ccccc1)C(N)=O [Leu-Phe-NH2] (H-Leu-Phe-NH2), the “Relative conversion (conversion of dipeptide amides, Table 4a)” value was 203%. With CC(=O)N[C@@H](CO)C(N)=O [Ac-Ser-NH2] the “Relative conversion (conversion of N-acetyl amino acid amides, Table 4b)” value was 58%.

Each compound was assayed against T1, peptide amidase from Xanthomonas maltophilia (assay: Enzymatic conversion of unprotected amino acid amides, thin-layer chromatography). Conditions: substrate 10 mM.
Assay type: biochemical
Method: as §1
The following thin-layer chromatographic methods were used for the analysis of the substrates and products cited in table 4d. To this end 1 μl of the stopped reaction batch was applied.
With NC(=O)[C@@H](N)CO [H-Ser-NH2] the “Conversion (unprotected amino acid amides)” value was 0 and the “Conversion (unprotected amino acid amides, Table 4d)” value was 0. For CC[C@H](C)[C@H](N)C(N)=O [H-Ile-NH2], the “Conversion (unprotected amino acid amides)” value was 0 and the “Conversion (unprotected amino acid amides, Table 4d)” value was 0. With C[C@@H](O)[C@H](N)C(N)=O [H-Thr-NH2] the “Conversion (unprotected amino acid amides)” value was 0 and the “Conversion (unprotected amino acid amides, Table 4d)” value was 0. In the case of NC(=O)[C@@H](N)Cc1c[nH]c2ccccc12 [H-Trp-NH2], the “Conversion (unprotected amino acid amides)” value is reported as 0 and the “Conversion (unprotected amino acid amides, Table 4d)” value is reported as 0. In the case of NC(=O)[C@@H](N)Cc1ccccc1 [H-Phe-NH2], the “Conversion (unprotected amino acid amides)” value is reported as 0 and the “Conversion (unprotected amino acid amides, Table 4d)” value is reported as 0. For C[C@H](N)C(N)=O [H-Ala-NH2], the “Conversion (unprotected amino acid amides)” value was 0 and the “Conversion (unprotected amino acid amides, Table 4d)” value was 0. NCCCC[C@H](N)C(N)=O [H-Lys-NH2] was tested, and the “Conversion (unprotected amino acid amides)” value was 0 and the “Conversion (unprotected amino acid amides, Table 4d)” value was 0. For C[C@@H](N)C(N)=O [H-D-Ala-NH2], the “Conversion (unprotected amino acid amides)” value was 0 and the “Conversion (unprotected amino acid amides, Table 4d)” value was 0. In the case of CSCC[C@H](N)C(N)=O [H-Met-NH2], the “Conversion (unprotected amino acid amides)” value is reported as 0 and the “Conversion (unprotected amino acid amides, Table 4d)” value is reported as 0. For CC(C)C[C@H](N)C(N)=O [H-Leu-NH2], the “Conversion (unprotected amino acid amides)” value was 0 and the “Conversion (unprotected amino acid amides, Table 4d)” value was 0. In the case of CC(C)C[C@@H](N)C(N)=O [H-D-Leu-NH2], the “Conversion (unprotected amino acid amides)” value is reported as 0 and the “Conversion (unprotected amino acid amides, Table 4d)” value is reported as 0. For CC(C)[C@H](N)C(N)=O [H-Val-NH2], the “Conversion (unprotected amino acid amides)” value was 0 and the “Conversion (unprotected amino acid amides, Table 4d)” value was 0. In the case of NC(=O)[C@@H](N)Cc1ccc(O)cc1 [H-Tyr-NH2], the “Conversion (unprotected amino acid amides)” value is reported as 0 and the “Conversion (unprotected amino acid amides, Table 4d)” value is reported as 0. N=C(N)NCCC[C@H](N)C(N)=O [H-arg-NH2] was tested, and the “Conversion (unprotected amino acid amides)” value was 0 and the “Conversion (unprotected amino acid amides, Table 4d)” value was 0.
